We go through one molecule from paper PMC6983054, “Toxicity and Antitumor Activity of a Thiophene–Acridine Hybrid” (Molecules, 2019).

This experiment relates to nitrite (nitric oxide). Briefly: Nitrite levels in ascitic fluid, Ehrlich ascites carcinoma model (Griess). The experiment is classed as in vivo, mice (Mus musculus). To be noted: peritoneal fluid, 12.5 mg/kg; control 36.09 ± 0.72 µM. As to the method:
The nitrite concentration in the ascitic fluid was measured using Griess reagent. For this, the peritoneal fluid of control and treated animals (12.5 mg/kg ACS03 and 25 mg/kg 5-FU) was used. The optical density was measured using a microplate spectrophotometer reader (Microplate reader BioTek Instruments, Sinergy HT, Winooski, VT, USA) at λ = 560 nm. Concentrations of nitrite were calculated from a standard curve previously established with known molar concentrations of sodium nitrite. The tests were done in quadruplicate and the values expressed in µM [51].
In general terms: Nitrite, measured by Griess reagent, commonly stands in for NO production.

As for `COc1ccc2nc3cc(Cl)ccc3c(Nc3sc4c(c3C#N)CCCCC4)c2c1` [ACS03, 2-((6-Chloro-2-methoxyacridin-9-yl)amino)-5,6,7,8-tetrahydro-4H-cyclohepta[b]-thiophene-3-carbonitrile], the nitrite concentration turned out to be 188.5 ± 7.98 µM.
